Patent US4459290A, “C-23-Modified derivatives of OMT, pharmaceutical compositions and method of use” (priority 1982, dated 1984)
In brackets after ≈: the same amount, converted by molar mass. Like-named read-outs stand apart in the source and are kept apart here.

How the values were obtained:
[1] = tested on: Streptococcus pyogenes C203; test: ED50 in mice experimentally infected with S. pyogenes C203 (Table VIII); format: in vivo
Experimental: The C-23 modified derivatives of OMT of this invention have shown in vivo antimicrobial activity against experimental infections. When two doses of test compound were administered to mice experimentally infected with a gram-positive bacterium, S. pyogenes C203, the activity observed was measured as an ED50 value [effective dose in mg/kg to protect 50% of the test animals: see Warren Wick, et al., J. Bacteriol. 81, 233-235 (1961)].

Staphylococcus aureus = test: MIC, broth-dilution microtiter test (Table VII); format: cell-based; details: Staphylococcus aureus
Summary of the method: (§1)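 Each MIC derives from a dilution series, either on solid agar (Enterobacter aerogenes) or in liquid broth within microtiter plates (staphylococcal and Pasteurella strains).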

Mycoplasma synoviae = test: MIC, broth-dilution microtiter test (Table VII); format: cell-based; details: Mycoplasmopsis synoviae
Experimental: (§2) Especially noteworthy is the improved activity against gram-negative bacteria for several derivatives when compared to the activity of OMT. […] The MIC's in Tables V and VI were determined by standard agar-dilution assays. The MIC's in Table VII were obtained using a conventional broth-dilution microtiter test.

[2] = tested on: Pasteurella multocida 40G; test: MIC, broth-dilution microtiter test (Table VII); format: cell-based; details: Pasteurella multocida; P. multocida 40G; broth-dilution microtiter; read-out: MIC
Summary of the method: as §1

[3] = tested on: Pasteurella multocida 17E; test: MIC, broth-dilution microtiter test (Table VII); format: cell-based; details: Pasteurella multocida; P. multocida 17E, bovine isolate; broth-dilution microtiter; read-out: MIC
Summary of the method: as §1

[4] = tested on: Pasteurella hemolytica 23C; test: MIC, broth-dilution microtiter test (Table VII); format: cell-based; details: Pasteurella, P. hemolytica 23C, read-out: MIC
Summary of the method: as §1

Mycoplasma hyorhinis = test: MIC, broth-dilution microtiter test (Table VII); format: cell-based
Experimental: as §2

[5] = tested on: Pasteurella multocida 60A; test: MIC, broth-dilution microtiter test (Table VII); format: cell-based; details: Pasteurella multocida; P. multocida 60A, avian isolate; broth-dilution microtiter; read-out: MIC
Summary of the method: as §1

Streptococcus sp. 80 = test: MIC, broth-dilution microtiter test (Table VII); format: cell-based; details: Streptococcus sp. 80; broth-dilution microtiter; read-out: MIC
Experimental: as §2

[6] = tested on: Pasteurella multocida 68C; test: MIC, broth-dilution microtiter test (Table VII); format: cell-based; details: Pasteurella multocida; P. multocida 68C; broth-dilution microtiter; read-out: MIC
Summary of the method: as §1

[7] = tested on: Pasteurella hemolytica 22C; test: MIC, broth-dilution microtiter test (Table VII); format: cell-based; details: Pasteurella, P. hemolytica 22C, read-out: MIC
Summary of the method: as §1

[8] = tested on: Pasteurella hemolytica 41D; test: MIC, broth-dilution microtiter test (Table VII); format: cell-based; details: Pasteurella, P. hemolytica 41D, read-out: MIC
Summary of the method: as §1

[9] = tested on: Pasteurella multocida 22A; test: MIC, broth-dilution microtiter test (Table VII); format: cell-based; details: Pasteurella multocida; P. multocida 22A; broth-dilution microtiter; read-out: MIC
Summary of the method: as §1

Mycoplasma gallisepticum = test: MIC, broth-dilution microtiter test (Table VII); format: cell-based; details: Mycoplasmoides gallisepticum
Experimental: as §2

Escherichia coli EC14 = test: MIC, standard agar-dilution assay (Table V); format: cell-based; details: Escherichia coli; E. coli EC14; agar dilution; read-out: MIC
Summary of the method: (§3)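 Growth inhibition in liquid medium, in a routine microtiter broth-dilution series, gave the MIC against staphylococci and pasteurellae; the gram-negative enteric strain was tested by conventional agar dilution instead.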

[10] = tested on: Staphylococcus aureus X400; test: MIC, standard agar-dilution assay (Table V); format: cell-based; details: Staphylococcus aureus
Experimental: as §2

Escherichia coli N10 = test: MIC, standard agar-dilution assay (Table V); format: cell-based; details: Escherichia coli; E. coli N10; agar dilution; read-out: MIC
Summary of the method: as §3

Streptococcus Group 9960 = test: MIC, standard agar-dilution assay (Table V); format: cell-based; details: GROUP9960
Experimental: as §2

[11] = tested on: Klebsiella pneumoniae X26; test: MIC, standard agar-dilution assay (Table V); format: cell-based; details: Klebsiella pneumoniae, X26
Experimental: as §2

[12] = tested on: Klebsiella pneumoniae KAE; test: MIC, standard agar-dilution assay (Table V); format: cell-based; details: Klebsiella pneumoniae; K. pneumoniae KAE; agar dilution; read-out: MIC
Summary of the method: as §3

[13] = tested on: Staphylococcus aureus X1.1; test: MIC, standard agar-dilution assay (Table V); format: cell-based; details: Staphylococcus aureus, X1.1
Experimental: as §2

Shigella sonnei N9 = test: MIC, standard agar-dilution assay (Table V); format: cell-based
Summary of the method: as §3

[14] = tested on: Staphylococcus aureus V41; test: MIC, standard agar-dilution assay (Table V); format: cell-based; details: Staphylococcus aureus
Experimental: as §2

[15] = tested on: Staphylococcus epidermidis EPI1; test: MIC, standard agar-dilution assay (Table V); format: cell-based; details: Staphylococcus epidermidis; S. epidermidis EPI1; agar dilution; read-out: MIC
Experimental: as §2

[16] = tested on: Staphylococcus aureus S13E; test: MIC, standard agar-dilution assay (Table V); format: cell-based; details: Staphylococcus aureus, S13E
Experimental: as §2

[17] = tested on: Streptococcus Group D X66; test: MIC, standard agar-dilution assay (Table V); format: cell-based
Experimental: as §2

[18] = tested on: Staphylococcus epidermidis EPI2; test: MIC, standard agar-dilution assay (Table V); format: cell-based; details: Staphylococcus epidermidis; S. epidermidis EPI2; agar dilution; read-out: MIC
Experimental: as §2

[19] = tested on: Haemophilus influenzae Holt; test: MIC, standard agar-dilution assay (Table V); format: cell-based; details: Haemophilus influenzae
Experimental: (§4) The MIC's in Tables V and VI were determined by standard agar-dilution assays. The MIC's in Table VII were obtained using a conventional broth-dilution microtiter test.

Escherichia coli TEM = test: MIC, standard agar-dilution assay (Table V); format: cell-based; details: Escherichia coli
Experimental: as §4

[20] = tested on: Streptococcus pyogenes C203; test: MIC, standard agar-dilution assay (Table V); format: cell-based; details: Streptococcus pyogenes, C203
Experimental: as §4

[21] = tested on: Haemophilus influenzae R252; test: MIC, standard agar-dilution assay (Table V); format: cell-based; details: Haemophilus influenzae, R252
Experimental: as §4

[22] = tested on: Streptococcus pneumoniae Park I; test: microbe, parasite or virus in culture; format: cell-based; details: Streptococcus pneumoniae; read-out: MIC
Experimental: as §2

Pasteurella multocida = test: Protection of one-day-old chicks against Pasteurella multocida infection (Table IX); format: in vivo; details: subcutaneous 30 mg/kg × 2, 1 and 4 hours post-challenge
Experimental: The C-23 modified derivatives of OMT have also shown in vivo antibacterial activity against infections induced by gram-negative bacteria. Table IX summarizes the results of tests in which illustrative compounds were evaluated against Pasteurella infections in one-day-old chicks. The compounds were administered by subcutaneous injection at a dosage of 30 mg/kg, 1 and 4 hours post-challenge of the chicks with Pasteurella multocida (0.1 ml of a twenty-hour tryptose broth culture of an avian P. multocida given subcutaneously). In the tests, all ten non-medicated infected chicks died within 24 hours of Pasteurella challenge.

these strains = test: Activity against the strains of Table VI, agar-dilution; format: cell-based; details: at the levels tested
Experimental: as §2

Q: For `CCC1OC(=O)CC(O)C(C)C(OC2OC(C)C(O)C(N(C)C)C2O)C(CC=O)CC(C)C(=O)C=CC(C)=CC1CSc1nnc(C)o1` (centres unmarked) [Compound 4], which ED50 ([1]; C203, po, read-out: ED50, Oral) is on record?
A: > 100 mg/kg

Q: And the ED50 ([1]; C203, sc, mice, subcutaneous, doses given 1 and 4 hours postinfection, read-out: ED50, Subcutaneous)?
A: 12.6 mg/kg

Q: What about the MIC (Staphylococcus aureus; S. aureus, broth-dilution microtiter, read-out: MIC) of the same compound?
A: 1.56 µg/mL (≈ 2.24 µM)

Q: What about the MIC (Mycoplasma synoviae; M. synoviae, broth-dilution microtiter, read-out: MIC) of the same compound?
A: 0.78 µg/mL (≈ 1.12 µM)

Q: What about the MIC [2] of the same compound?
A: 3.12 µg/mL (≈ 4.48 µM)

Q: What about the MIC [3] of the same compound?
A: 6.25 µg/mL (≈ 8.98 µM)

Q: And the MIC [4]?
A: 12.5 µg/mL (≈ 18 µM)

Q: And the MIC (Mycoplasma hyorhinis; M. hyorhinis, broth-dilution microtiter, read-out: MIC)?
A: 6.25 µg/mL (≈ 8.98 µM)

Q: What about the MIC [5] of the same compound?
A: 6.25 µg/mL (≈ 8.98 µM)

Q: And the MIC (Streptococcus sp. 80)?
A: 0.39 µg/mL (≈ 0.56 µM)

Q: And the MIC [6]?
A: 6.25 µg/mL (≈ 8.98 µM)

Q: What about the MIC [7] of the same compound?
A: 12.5 µg/mL (≈ 18 µM)

Q: What about the MIC [8] of the same compound?
A: 12.5 µg/mL (≈ 18 µM)

Q: What about the MIC [9] of the same compound?
A: 6.25 µg/mL (≈ 8.98 µM)

Q: And the MIC (Mycoplasma gallisepticum; M. gallisepticum, broth-dilution microtiter, read-out: MIC)?
A: 0.39 µg/mL (≈ 0.56 µM)

Q: And the MIC (Escherichia coli EC14)?
A: > 128 µg/mL

Q: What about the MIC ([10]; S. aureus X400, methicillin-resistant strain, agar dilution, read-out: MIC) of the same compound?
A: 0.5 µg/mL (≈ 0.719 µM)

Q: And the MIC (Escherichia coli N10)?
A: > 128 µg/mL

Q: What about the MIC (Streptococcus Group 9960; Streptococcus Group 9960, agar dilution, read-out: MIC) of the same compound?
A: 0.5 µg/mL (≈ 0.719 µM)

Q: What about the MIC [11] of the same compound?
A: 8 µg/mL (≈ 11.5 µM)

Q: And the MIC [12]?
A: > 128 µg/mL

Q: And the MIC [13]?
A: 0.25 µg/mL (≈ 0.359 µM)

Q: What about the MIC (Shigella sonnei N9) of the same compound?
A: 64 µg/mL (≈ 92 µM)

Q: What about the MIC ([14]; S. aureus V41, penicillin-resistant strain, agar dilution, read-out: MIC) of the same compound?
A: 0.5 µg/mL (≈ 0.719 µM)

Q: What about the MIC [15] of the same compound?
A: 0.25 µg/mL (≈ 0.359 µM)

Q: What about the MIC [16] of the same compound?
A: 0.25 µg/mL (≈ 0.359 µM)

Q: And the MIC ([17]; Streptococcus Group D X66, agar dilution, read-out: MIC)?
A: 0.5 µg/mL (≈ 0.719 µM)

Q: What about the MIC [18] of the same compound?
A: 0.5 µg/mL (≈ 0.719 µM)

Q: What about the MIC [19] of the same compound?
A: 4 µg/mL (≈ 5.75 µM)

Q: What about the MIC (Escherichia coli TEM) of the same compound?
A: 32 µg/mL (≈ 46 µM)

Q: And the MIC [20]?
A: 0.25 µg/mL (≈ 0.359 µM)

Q: And the MIC [21]?
A: 4 µg/mL (≈ 5.75 µM)

Q: And the MIC [22]?
A: 0.06 µg/mL (≈ 0.0862 µM)

Q: And the “Number of deaths/number treated” value (Pasteurella multocida)?
A: 8/10

Q: And the “activity against these strains” value (these strains)?
A: did not show activity

Q: What does the source list for `C=C1C=CC(=O)C(C)CC(CC=O)C(OC2OC(C)C(O)C(N(C)C)C2O)C(C)C(O)CC(=O)OC(CC)C2CC12` (centres unmarked) [Compound 16]?
A: ED50 ([1]; C203, po, read-out: ED50, Oral): > 100 mg/kg; ED50 ([1]; C203, sc, read-out: ED50, Subcutaneous): > 30 mg/kg; MIC (Staphylococcus aureus): 12.5 µg/mL (≈ 21.6 µM); MIC (Mycoplasma synoviae): 12.5 µg/mL (≈ 21.6 µM); MIC [2]: 25 µg/mL (≈ 43.1 µM); MIC [3]: 25 µg/mL (≈ 43.1 µM); MIC [4]: 50 µg/mL (≈ 86.2 µM); MIC (Mycoplasma hyorhinis): 12.5 µg/mL (≈ 21.6 µM); MIC [5]: 25 µg/mL (≈ 43.1 µM); MIC (Streptococcus sp. 80): 6.25 µg/mL (≈ 10.8 µM); MIC [6]: 25 µg/mL (≈ 43.1 µM); MIC [7]: > 50 µg/mL; MIC [8]: 50 µg/mL (≈ 86.2 µM); MIC [9]: 25 µg/mL (≈ 43.1 µM); MIC (Mycoplasma gallisepticum): 1.56 µg/mL (≈ 2.69 µM); MIC (Escherichia coli EC14): > 128 µg/mL; MIC ([10]; X400): 4 µg/mL (≈ 6.9 µM); MIC (Escherichia coli N10): > 128 µg/mL; MIC (Streptococcus Group 9960): 8 µg/mL (≈ 13.8 µM); MIC [11]: 64 µg/mL (≈ 110 µM); MIC [12]: > 128 µg/mL; MIC [13]: 4 µg/mL (≈ 6.9 µM); MIC (Shigella sonnei N9): > 128 µg/mL; MIC ([14]; V41): 4 µg/mL (≈ 6.9 µM); MIC [15]: 4 µg/mL (≈ 6.9 µM); MIC [16]: 4 µg/mL (≈ 6.9 µM); MIC [17]: 4 µg/mL (≈ 6.9 µM); MIC [18]: 4 µg/mL (≈ 6.9 µM); MIC [19]: 64 µg/mL (≈ 110 µM); MIC (Escherichia coli TEM; E. coli TEM, agar dilution, read-out: MIC): > 128 µg/mL; MIC [20]: 1 µg/mL (≈ 1.72 µM); MIC [21]: 64 µg/mL (≈ 110 µM); activity against these strains (these strains): did not show activity
